Results on four compounds are retold here after patent US20220145406A1, “BIOMARKERS, AND USES IN TREATMENT OF VIRAL INFECTIONS, INFLAMMATIONS, OR CANCER” (ABIVAX, priority 2018, published 2022).

For the experiment, the system named is miR-124. Briefly: miR-124 (RT-q)PCR in PBMCs, CD4+ and CD8+ T cells, macrophages. In kind it is cell-based, human. As to conditions: PBMCs treated with antiretrovirals. As for the experimental part:
Buffy coats from HIV-negative individuals were obtained from the local blood donation center in Centre de transfusion sanguine Montpellier. Human peripheral blood mononuclear cells (PBMCs) were isolated by Ficoll (Histopaque, Sigma) gradient centrifugation. CD4+ and CD8+ T cells were purified from PBMCs after Ficoll gradient centrifugation by Human CD4+ beads positive selection and CD8+ beads positive selection, respectively (Miltenyi). PBMCs, CD4+ and CD8+ T cells were grown at 37° C. and 5% CO2 to a density of 1.5×10^6 cells/ml in RPMI GlutaMAX medium (Life Technologies) supplemented with 10% fetal calf serum (FCS) (Thermo Fisher), 40 U/ml of IL2 (PeproTech) and 5 μg/mL of PHA (Roche) for 2 days. Three days later, cells were resuspended at 1.5×10^6 cells/ml in RPMI supplemented with 10% FCS and 40 U/ml IL2 and separated into two parts (infected and uninfected cells). Cells were infected with 80 ng of p24/106 cells of the YU-2 strain for 4 to 6 hours and then rinsed with PBS before medium renewal.
Both infected and uninfected cells were then centrifuged and resuspended to a density of 1.5×10^6 cells/ml in medium supplemented with diluted drug solubilized in DMSO (Sigma) to a final 0.05% DMSO concentration or antiretroviral compounds according to the manufacturer's instructions. Cells were treated for 6 days with a medium renewal at day 3. HIV p24 titration was performed by ELISA from cell culture supernatants with Innotest kit (Ingen) according to the manufacturer's instructions.
To generate monocyte-derived macrophages, monocytes were isolated using CD14+ positive microbeads (Miltenyi) and cultured in X-VIVO 10 medium (Lonza) supplemented with 10 mM HEPES, 1 mM sodium pyruvate, 1% non-essential amino acids, 10% FBS, 10 ng/ml GM-CSF and 100 ng/ml M-CSF for 7 days with medium renewal at day 3. After 7 days of differentiation, the cells were washed, plated in 6-well plates and incubated for 24 hours in medium without cytokine addition. Cells were treated for 6 days with a partial medium change at day 3.
miRNAs were extracted from PBMCs, CD4+ or CD8+ T cells using the NucleoSpin miRNeasy kit (Macherey-Nagel) according to the manufacturer's instructions. miRNA reverse transcription (RT) was performed using the miScript II RT kit (Qiagen). […] The relative levels of miR-124 were calculated using the 2^−ΔΔCt method.
Total RNA was extracted from macrophages using the Macherey-Nagel NucleoSpin miRNeasy kit. miRNA reverse transcription (RT) was performed on 2 μl of total RNA according to the Applied Biosystems TaqMan Advanced miRNA assays protocol for TaqMan qPCR. […] PCR runs were analyzed with Applied Biosystems ViiA 7 software.

On to `Cc1cn([C@H]2C[C@H](N=[N+]=[N-])[C@@H](CO)O2)c(=O)[nH]c1=O` [AZT], for which the “miR-124 expression compared to untreated cells (DMSO)” value is listed as “did not upregulate”.
With `CC(C)CN(C[C@@H](O)[C@H](Cc1ccccc1)NC(=O)O[C@H]1CO[C@H]2OCC[C@H]21)S(=O)(=O)c1ccc(N)cc1` [darunavir], the “miR-124 expression compared to untreated cells (DMSO)” value was “did not upregulate”.
With `O=C1Nc2ccc(Cl)cc2[C@@](C#CC2CC2)(C(F)(F)F)O1` [efavirenz], the “miR-124 expression compared to untreated cells (DMSO)” value was “did not upregulate”.
The entry for maraviroc is “did not upregulate”.
